{"source": "patent US20100056620A1", "about": "“ACTIVE COMPOUND COMBINATIONS WITH INSECTICIDAL AND ACARICIDAL PROPERTIES” (Bayer CropScience AG, priority 2006, published 2010)", "format_in_all_cases": "in vivo", "key": {"[1]": {"test_system": "red spider Panonychus ulmi (PANOUL)", "test": "Example A: apple tree field test against red spider, count of adult spider mites on 25 leaves", "settings": "etoxazole 0.05%, I-1-b 0.04%; for PANOUL (number of adult spider mites on 25 leaves): apple 'Braeburn'; for Prey/Predator ratio: PANOUL/AMBLAN", "experimental": "(§1) In 4 replications, in each case five about 10-year-old apple trees (crown height about 2.5 m) of the cultivar “Braeburn” are treated against the red spider Panonychus ulmi (PANOUL). Here, the active compound (I-b-1) (240SC) and the commercial standard etoxazole (110 SC) are applied at the stated application rates in the presence of the predatory mite Amblyseius andersoni (AMBLAN) using a pressure-operated knapsack spray. The water application rate is 400 l/ha. Two applications are carried out at an interval of 42 days.\n(§2) Evaluation is carried out 4 days prior to and 6, 29, 43 and 63 days after the 1st treatment by counting the number of adult spider mites and predatory mites on 25 leaves and establishing a prey/predator ratio as a measure for the supporting action of the beneficial species."}, "[2]": {"test_system": "fruit tree spider mite (Panonychus ulmi)", "test": "Example B: Panonychus ulmi test on plum cuttings, with or without added predatory mites", "settings": "20 ppm, active compound alone, spray", "text": "The expected activity for a given combination of two active compounds can be calculated (cf. Colby, S. R.; “Calculating Synergistic and Antagonistic Responses of Herbicide Combinations”, Weeds 15, pages 20-22, 1967) as follows:\nIf • X is the kill rate, expressed in % of the untreated control, when employing active compound A at an application rate of in ppm or g/ha, • Y is the kill rate, expressed in % of the untreated control, when employing active compound B at an application rate of n ppm or g/ha, • E is the kill rate, expressed in % of the untreated control, when employing active compounds A and B at application rates of m and n ppm or g/ha, • then\nIf the actual insecticidal kill rate is higher than the calculated one, the kill rates of the combination are superadditive, i.e. a synergistic effect is present. In this case, the kill rate that is actually observed has to be higher than the value, calculated using the formula above, for the expected kill rate (E).\nTo produce a suitable preparation of active compound, 1 part by weight of active compound is mixed with the stated amounts of solvent and emulsifier, and the concentrate is diluted with emulsifier-containing water to the desired concentration. […]\nAfter the desired period of time, the kill of the pest in % is determined. […] The determined kill ratios are entered into Colby's formula."}, "[3]": {"test_system": "predatory mite Amblyseius andersoni (AMBLAN)", "test": "Example A: apple tree field test, count of predatory mites on 25 leaves", "settings": "apple 'Braeburn', etoxazole 0.05%, I-1-b 0.04%", "experimental": "as §1, §2"}, "[4]": {"settings": "6 d after 1st treatment, AMBLAN present"}, "[5]": {"settings": "29 d after 1st treatment, AMBLAN present"}, "[6]": {"settings": "43 d after 1st treatment, two applications 42 days apart"}, "[7]": {"settings": "63 d after 1st treatment, two applications 42 days apart"}, "[8]": {"settings": "−4 d (4 days prior to 1st treatment)"}, "[9]": {"settings": "−4 d (4 days prior to 1st treatment), AMBLAN present"}}}
{"smiles": "CCC(C)(C)C(=O)OC1=C(c2ccc(Cl)cc2Cl)C(=O)OC12CCCCC2", "note": "[I-b-1, spirodiclofen]", "values": [{"measurement": "PANOUL (number of adult spider mites on 25 leaves)", "setting": "[1]; [4]", "result": 13}, {"measurement": "PANOUL (number of adult spider mites on 25 leaves)", "setting": "[1]; [5]", "result": 111}, {"measurement": "PANOUL (number of adult spider mites on 25 leaves)", "setting": "[1]; [6]", "result": 52}, {"measurement": "PANOUL (number of adult spider mites on 25 leaves)", "setting": "[1]; [7]", "result": 0}, {"measurement": "Prey/Predator ratio", "setting": "[1]; 6 d after 1st treatment", "result": 4.3}, {"measurement": "Prey/Predator ratio", "setting": "[1]; 29 d after 1st treatment", "result": 1.9}, {"measurement": "Prey/Predator ratio", "setting": "[1]; 43 d after 1st treatment", "result": 0.5}, {"measurement": "Prey/Predator ratio", "setting": "[1]; 63 d after 1st treatment", "result": 0.00}, {"measurement": "Prey/Predator ratio", "setting": "[1]; [8]", "result": 18}, {"measurement": "PANOUL (number of adult spider mites on 25 leaves)", "setting": "[1]; [9]", "result": 36}, {"measurement": "Kill in % after 7 d", "setting": "[2]", "result": 70, "unit": "%"}, {"measurement": "AMBLAN (number of predatory mites on 25 leaves)", "setting": "[3]; 6 d after 1st treatment", "result": 3}, {"measurement": "AMBLAN (number of predatory mites on 25 leaves)", "setting": "[3]; 29 d after 1st treatment", "result": 57}, {"measurement": "AMBLAN (number of predatory mites on 25 leaves)", "setting": "[3]; [6]", "result": 100}, {"measurement": "AMBLAN (number of predatory mites on 25 leaves)", "setting": "[3]; [7]", "result": 62}, {"measurement": "AMBLAN (number of predatory mites on 25 leaves)", "setting": "[3]; [8]", "result": 2}]}
{"smiles": "CCOc1cc(C(C)(C)C)ccc1C1COC(c2c(F)cccc2F)=N1", "note": "(stereo not shown) [etoxazole, reference compound]", "values": [{"measurement": "PANOUL (number of adult spider mites on 25 leaves)", "setting": "[1]; [4]", "result": 10}, {"measurement": "PANOUL (number of adult spider mites on 25 leaves)", "setting": "[1]; [5]", "result": 221}, {"measurement": "PANOUL (number of adult spider mites on 25 leaves)", "setting": "[1]; [6]", "result": 203}, {"measurement": "PANOUL (number of adult spider mites on 25 leaves)", "setting": "[1]; [7]", "result": 87}, {"measurement": "Prey/Predator ratio", "setting": "[1]; 6 d after 1st treatment", "result": 2.0}, {"measurement": "Prey/Predator ratio", "setting": "[1]; 29 d after 1st treatment", "result": 12.3}, {"measurement": "Prey/Predator ratio", "setting": "[1]; 43 d after 1st treatment", "result": 3.9}, {"measurement": "Prey/Predator ratio", "setting": "[1]; 63 d after 1st treatment", "result": 1.01}, {"measurement": "Prey/Predator ratio", "setting": "[1]; [8]", "result": 25}, {"measurement": "PANOUL (number of adult spider mites on 25 leaves)", "setting": "[1]; [9]", "result": 25}, {"measurement": "AMBLAN (number of predatory mites on 25 leaves)", "setting": "[3]; 6 d after 1st treatment", "result": 5}, {"measurement": "AMBLAN (number of predatory mites on 25 leaves)", "setting": "[3]; 29 d after 1st treatment", "result": 18}, {"measurement": "AMBLAN (number of predatory mites on 25 leaves)", "setting": "[3]; [6]", "result": 52}, {"measurement": "AMBLAN (number of predatory mites on 25 leaves)", "setting": "[3]; [7]", "result": 86}, {"measurement": "AMBLAN (number of predatory mites on 25 leaves)", "setting": "[3]; [8]", "result": 1}]}
